{
  "source": "patent US12459940B2",
  "about": "“Oxazole compound as multi-targeted inhibitor of IRAK4 and BTK” (SHANGHAI FOSUN PHARMACEUTICAL INDUSTRIAL DEVELOPMENT CO., …, priority 2019, dated 2025)",
  "key": {"[1]": {"test_system": "TMD8 human B-cell lymphoma cells", "test": "TMD-8 cell proliferation inhibition (CellTiter-Glo)", "format": "cell-based", "conditions": "TMD8, 72 h, treated for 3 days", "description": "TMD8 human B-cell lymphoma cells were cultured in a 37° C., 5% CO2 incubator. The composition of medium was RPMI1640 (GIBCO, Cat #22400-089); the supplementary compositions were 10% FBS (Hyclone, Cat #SH30084.03); 1% PenStrep (Thermo, Cat #SV30010).\n(§1) The tumor cell lines OCI-LY10 and TMD8 were used to detect the effect of the compound on inhibiting tumor cell proliferation in vitro. The tumor cell line was cultured in a 37° C., 5% CO2 incubator according to the culture conditions shown, and passaged regularly, then the cells in the logarithmic growth phase were taken, counted, and spread in a 96-well plate (the cells in each well were adjusted to an appropriate concentration, a total of […] per well was added). After incubating overnight in a 37° C., 5% CO2 incubator, drugs with different concentration gradients (10 μL of drug solution was added) were added and treated for 3 days, then 50 μL of CellTiter-Glo working solution was added to each well, and the cell plate was wrapped with aluminum foil to avoid light. The culture plate was shaken on an orbital shaker for 2 minutes to induce cell lysis, and placed at room temperature for 10 minutes to stabilize the luminescence signal, then the luminescence signal was detected on the 2104 EnVision plate reader.\n(§2) The Inhibition rate (IR) of the tested compound was calculated using the following formula: IR (%)=(1−(RLU compound−RLU blank control)/(RLU solvent control−RLU blank control))*100%.\n(§3) The inhibition rates of different concentrations of the compounds were calculated in Excel, and then the inhibition curves were made by GraphPad Prism software and the related parameters were calculated, including the minimum inhibition rate, the maximum inhibition rate and IC50."}, "[2]": {"test_system": "OCI-LY10 human B-cell lymphoma cells", "test": "OCI-LY10 cell proliferation inhibition (CellTiter-Glo)", "format": "cell-based", "conditions": "OCI-Ly10, 72 h, treated for 3 days", "description": "OCI-LY10 human B-cell lymphoma cells were cultured in a 37° C., 5% CO2 incubator. The composition of medium was IMDM (GIBCO, Cat #12440053); the supplementary compositions were 20% FBS (Hyclone, Cat #SH30084.03); 1% PenStrep (Thermo, Cat #SV30010).\nas §1, §2, §3"}, "[3]": {"molecular_target": "T1, human IRAK4 (Homo sapiens, UniProt Q9NWZ3)", "T1 construct": "purchased Reaction Biology Corp", "T1 sequence (Q9NWZ3 1-460)": "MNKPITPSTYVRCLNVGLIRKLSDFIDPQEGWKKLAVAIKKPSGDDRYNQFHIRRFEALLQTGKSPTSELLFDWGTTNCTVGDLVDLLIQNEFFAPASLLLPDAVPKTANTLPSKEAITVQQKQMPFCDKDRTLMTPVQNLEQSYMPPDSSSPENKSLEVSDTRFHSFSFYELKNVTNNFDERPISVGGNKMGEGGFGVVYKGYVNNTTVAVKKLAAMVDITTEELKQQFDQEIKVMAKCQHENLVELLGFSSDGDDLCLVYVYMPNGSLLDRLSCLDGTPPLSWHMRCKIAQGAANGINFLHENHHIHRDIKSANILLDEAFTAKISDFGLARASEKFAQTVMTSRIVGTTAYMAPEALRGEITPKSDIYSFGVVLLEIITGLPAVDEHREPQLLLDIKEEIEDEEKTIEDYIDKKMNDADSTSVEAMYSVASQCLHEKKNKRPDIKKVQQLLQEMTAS", "test": "In vitro IRAK4 kinase activity, 33P isotope-labeled kinase activity assay (Reaction Biology Corp)", "format": "biochemical", "conditions": "33P-ATP, 120 minutes at room temperature; read-out: IRAK4/IC50", "description": "The IC50 values were determined using ^33P isotope-labeled kinase activity assay (Reaction Biology Corp) to evaluate the inhibitory ability of the tested compounds on human IRAK4.\n(§4) Buffer conditions: 20 mM Hepes (pH 7.5), 10 mM MgCl2, 1 mM EGTA, 0.02% Brij35, 0.02 mg/mL BSA, 0.1 mM Na3VO4, 2 mM DTT, 1% DMSO.\nTest procedure: At room temperature, the tested compound was dissolved in DMSO to prepare a 10 mM solution for later use. The substrate was dissolved in a newly prepared buffer solution, and the tested IRAK4 kinase was added thereto and mixed evenly. The DMSO solution dissolved with the tested compound was added to the above reaction mixture mixed evenly using acoustic technique (Echo 550). After incubation for 15 minutes, ^33P-ATP was added to initiate the reaction."}, "[4]": {"molecular_target": "T2, human BTK (Homo sapiens, UniProt Q06187)", "T2 construct": "purchased Reaction Biology Corp", "T2 sequence (Q06187 whole entry)": "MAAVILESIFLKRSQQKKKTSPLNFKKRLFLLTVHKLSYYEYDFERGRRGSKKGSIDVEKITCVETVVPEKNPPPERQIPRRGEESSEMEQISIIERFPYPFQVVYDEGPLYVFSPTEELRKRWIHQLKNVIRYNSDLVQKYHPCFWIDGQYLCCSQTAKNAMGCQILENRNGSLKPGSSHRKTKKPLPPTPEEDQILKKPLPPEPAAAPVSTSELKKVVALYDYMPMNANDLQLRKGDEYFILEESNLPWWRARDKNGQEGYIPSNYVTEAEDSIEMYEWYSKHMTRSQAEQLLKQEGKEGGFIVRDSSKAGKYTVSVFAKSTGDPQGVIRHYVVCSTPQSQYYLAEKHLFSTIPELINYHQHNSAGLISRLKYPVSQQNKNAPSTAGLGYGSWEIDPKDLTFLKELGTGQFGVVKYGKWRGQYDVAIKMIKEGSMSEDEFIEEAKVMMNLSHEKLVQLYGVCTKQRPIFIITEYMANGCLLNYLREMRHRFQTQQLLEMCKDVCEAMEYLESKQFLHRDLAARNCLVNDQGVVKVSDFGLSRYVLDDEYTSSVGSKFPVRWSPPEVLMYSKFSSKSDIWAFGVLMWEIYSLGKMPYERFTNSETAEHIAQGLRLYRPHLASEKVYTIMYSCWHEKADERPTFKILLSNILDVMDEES", "test": "In vitro BTK kinase activity, 33P isotope-labeled kinase activity assay (Reaction Biology Corp)", "format": "biochemical", "conditions": "33P-ATP, 2 hours at room temperature", "description": "The IC50 values were determined using ^33P isotope-labeled kinase activity assay (Reaction Biology Corp) to evaluate the inhibitory ability of the tested compounds on human BTK.\nas §4\nTest procedure: At room temperature, the tested compound was dissolved in DMSO to prepare a 10 mM solution for later use. The substrate was dissolved in a newly prepared buffer solution, and the tested BTK kinase was added thereto and mixed evenly. The compound dissolved in DMSO was added to the kinase reaction mixture through Echo 550 (Acoustic technology; Nanoliter range). After incubation for 20 minutes at room temperature, ^33P-ATP was added to initiate the reaction. The reaction was carried out at room temperature for 2 hours, and the radioactivity of the reaction liquid point was detected by filtration-binding method with P81 ion exchange filter paper. The kinase activity data were expressed by comparing the kinase activity of the group containing the tested compound with the kinase activity of the blank group (only containing DMSO), and the IC50 value was obtained by curve fitting by Prism4 software (GraphPad), the experimental results are shown in Table 10."}},
  "data": [
    {"smiles": "Cc1cc(-c2nc(C(=O)Nc3cn4cc(CCC(C)(C)O)nc4cc3N3CCCCC3)co2)ccn1", "note": "[WX001]", "values": [
      {"measurement": "IC50", "setting": "[1]", "result": 300, "unit": "nM"},
      {"measurement": "IC50", "setting": "[2]", "result": 128, "unit": "nM"},
      {"measurement": "IC50", "setting": "[3]", "result": 1, "unit": "nM"},
      {"measurement": "IC50", "setting": "[4]", "result": 6.7, "unit": "nM"}
    ]}
  ]
}
